In the supplement of paper PMC10307832:

Experiments:
Assay in all cases: relative viability (nuclei count vs DMSO), 5 days (fraction); higher = more cells survive
[1] = compound: Cc1cnc(CNC(=O)c2c(=O)c3ccc(N4CCCN(C)CC4)nc3n3c2sc2ccccc23)cn1 [CX-5461] + CCNC(=O)c1noc(-c2cc(C(C)C)c(O)cc2O)c1-c1ccc(CN2CCOCC2)cc1 [Luminespib] (partner 0.01 µM)
How it was run: (§1)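 After 5 days of treatment, lung cancer cells in 1536-well plates were fixed and stained in a single step (final 0.05% Triton X-100, 1% formaldehyde, 1 ug/ml Hoechst) and their nuclei counted on 4× images. Treatment had been applied by pin tool the day after seeding as one drug alone or as a fixed anchor-drug dose with five library-drug doses (not always all listed) in √10 steps. Relative viability is the nuclei count of treated wells divided by that of vehicle wells, and values are medians of duplicate plates.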

[2] = compound: Cc1cnc(CNC(=O)c2c(=O)c3ccc(N4CCCN(C)CC4)nc3n3c2sc2ccccc23)cn1 [CX-5461] + O=C(c1cc(Cc2n[nH]c(=O)c3ccccc23)ccc1F)N1CCN(C(=O)C2CC2)CC1 [Olaparib] (partner 8 µM)
How it was run: as §1

[3] = compound: O=C(Nc1cc(C(F)(F)F)cc(C(F)(F)F)c1)c1cc(Cl)ccc1O [IMD-0354] + CS(=O)(=O)N1CCN(Cc2cc3nc(-c4cccc5[nH]ncc45)nc(N4CCOCC4)c3s2)CC1 [Pictilisib] (partner 1 µM)
How it was run: as §1

[4] = compound: O=C(Nc1cc(C(F)(F)F)cc(C(F)(F)F)c1)c1cc(Cl)ccc1O [IMD-0354] + NC(=O)Nc1cc(-c2cccc(F)c2)sc1C(=O)N[C@H]1CCCNC1 [AZD7762] (partner 0.2 µM)
How it was run: as §1

Row | Cell Line | relative viability ([1]; first compound 0.01 µM) | relative viability ([1]; first compound 0.03162 µM) | relative viability ([1]; first compound 0.1 µM) | relative viability ([1]; first compound 0.3162 µM) | relative viability ([1]; first compound 1 µM) | relative viability ([2]; first compound 0.01 µM) | relative viability ([2]; first compound 0.03162 µM) | relative viability ([2]; first compound 0.1 µM) | relative viability ([2]; first compound 0.3162 µM) | relative viability ([2]; first compound 1 µM) | relative viability ([3]; first compound 0.04 µM) | relative viability ([3]; first compound 0.1265 µM) | relative viability ([3]; first compound 0.4 µM) | relative viability ([3]; first compound 1.265 µM) | relative viability ([3]; first compound 4 µM) | relative viability ([4]; first compound 0.04 µM) | relative viability ([4]; first compound 0.1265 µM) | relative viability ([4]; first compound 0.4 µM) | relative viability ([4]; first compound 1.265 µM) | relative viability ([4]; first compound 4 µM)
1 | HCC-827 | 0.875 | 0.69 | 0.921 | 0.588 | 0.791 | 0.703 | 0.69 | 0.767 | 0.644 | 0.611 | 1.03 | 0.795 | 0.691 | 0.66 | 0.337 | 0.204 | 0.239 | 0.215 | 0.183 | 0.153
2 | NCI-H1395 | 0.669 | 0.596 | 0.677 | 0.667 | 0.644 | 0.457 | 0.427 | 0.443 | 0.435 | 0.456 | 0.592 | 0.589 | 0.555 | 0.346 | 0.348 | 0.394 | 0.427 | 0.383 | 0.319 | 0.384
3 | BEN | 0.326 | 0.391 | 0.289 | 0.337 | 0.181 | 1.12 | 1.06 | 1.2 | 1.02 | 0.737 | 0.639 | 0.57 | 0.369 | 0.294 | 0.211 | 0.715 | 0.793 | 0.487 | 0.334 | 0.347
4 | NCI-H23 | 0.212 | 0.234 | 0.197 | 0.234 | 0.214 | 0.376 | 0.303 | 0.326 | 0.333 | 0.287 | 0.53 | 0.472 | 0.306 | 0.188 | 0.165 | 0.252 | 0.253 | 0.229 | 0.13 | 0.222
5 | NCI-H1793 | 0.199 | 0.249 | 0.131 |  | 0.194 | 1.09 | 1 | 0.879 | 0.937 | 0.792 | 0.357 | 0.319 | 0.235 | 0.172 | 0.206 | 0.592 | 0.542 | 0.337 | 0.181 | 0.205
6 | 201T | 1.05 | 1.04 | 1.05 | 1.06 | 1.11 | 0.888 | 0.841 | 0.856 | 0.84 | 0.793 | 0.785 | 0.661 | 0.584 | 0.59 | 0.41 | 0.511 | 0.616 | 0.392 | 0.657 | 0.214
7 | NCI-H358 | 0.317 | 0.42 | 0.327 | 0.358 | 0.371 | 0.676 | 0.616 | 0.575 | 0.494 | 0.266 | 0.319 | 0.31 | 0.263 | 0.241 | 0.22 | 0.591 | 0.433 | 0.384 | 0.245 | 0.255
8 | NCI-H460 | 0.0291 | 0.0347 |  | 0.041 | 0.0205 | 0.463 | 0.451 | 0.286 | 0.39 | 0.0729 | 0.438 | 0.48 | 0.184 | 0.0352 | 0.0702 | 0.649 | 0.756 | 0.301 | 0.0985 | 0.0595
9 | HCC-15 | 0.236 | 0.331 | 0.305 | 0.359 | 0.216 | 0.607 | 0.721 | 0.625 | 0.693 | 0.538 | 0.632 | 0.696 | 0.437 | 0.14 | 0.133 | 1.07 | 1.13 | 0.923 | 0.648 | 0.157
10 | ABC-1 | 0.531 | 0.691 | 0.521 | 0.402 | 0.303 | 0.798 |  | 1.04 | 0.594 | 0.517 | 0.753 | 0.643 | 0.447 | 0.25 | 0.263 | 1.26 | 0.98 | 0.522 | 0.257 | 0.331
11 | LCLC-103H | 1.03 | 1.08 | 1.01 | 1.14 | 0.975 | 0.766 | 0.857 | 0.793 | 0.788 | 0.762 | 0.676 | 0.655 | 0.521 | 0.544 | 0.345 | 0.952 | 0.907 | 0.554 | 0.47 | 0.257
12 | NCI-H441 | 0.322 | 0.421 | 0.323 | 0.444 | 0.239 | 0.553 | 0.664 | 0.478 | 0.588 | 0.448 | 0.543 | 0.521 | 0.316 | 0.266 | 0.183 | 1.4 | 1.31 | 0.664 | 0.24 | 0.293
13 | EPLC-272H | 0.324 | 0.192 | 0.196 |  | 0.356 | 0.712 | 0.871 | 0.785 | 0.74 | 0.493 | 0.327 | 0.265 | 0.231 | 0.264 | 0.103 | 0.167 | 0.217 | 0.162 | 0.19 | 0.118
